Data set [1] deals with T1, Urotensin-2 receptor (Homo sapiens, UniProt Q9UKP6).
T1 sequence (Q9UKP6 whole entry): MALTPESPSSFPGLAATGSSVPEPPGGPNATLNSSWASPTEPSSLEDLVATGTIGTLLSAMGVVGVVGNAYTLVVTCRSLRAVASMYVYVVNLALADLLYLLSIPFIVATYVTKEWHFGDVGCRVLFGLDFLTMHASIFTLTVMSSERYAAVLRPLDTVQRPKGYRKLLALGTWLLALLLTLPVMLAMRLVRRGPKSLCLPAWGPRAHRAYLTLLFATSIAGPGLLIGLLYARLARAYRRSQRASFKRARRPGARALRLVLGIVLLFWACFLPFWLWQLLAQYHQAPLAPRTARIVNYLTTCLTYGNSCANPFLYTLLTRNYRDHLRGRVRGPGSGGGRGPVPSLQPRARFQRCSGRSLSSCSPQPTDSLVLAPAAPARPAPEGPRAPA
Briefly: Displacement of [125I]hU-2 from human recombinant Urotensin 2 receptor expressed in HEK293 cells. Format: cell-based. In general terms: In a radioligand displacement assay an active substance lowers the binding of a labelled ligand.

In data set [2] the target is Cytochrome P450 2D6 (Homo sapiens, UniProt P10635). Description: Inhibition of CYP2D6. It counts as ADME.
Cytochrome P450 2D6, sequence (P10635 whole entry): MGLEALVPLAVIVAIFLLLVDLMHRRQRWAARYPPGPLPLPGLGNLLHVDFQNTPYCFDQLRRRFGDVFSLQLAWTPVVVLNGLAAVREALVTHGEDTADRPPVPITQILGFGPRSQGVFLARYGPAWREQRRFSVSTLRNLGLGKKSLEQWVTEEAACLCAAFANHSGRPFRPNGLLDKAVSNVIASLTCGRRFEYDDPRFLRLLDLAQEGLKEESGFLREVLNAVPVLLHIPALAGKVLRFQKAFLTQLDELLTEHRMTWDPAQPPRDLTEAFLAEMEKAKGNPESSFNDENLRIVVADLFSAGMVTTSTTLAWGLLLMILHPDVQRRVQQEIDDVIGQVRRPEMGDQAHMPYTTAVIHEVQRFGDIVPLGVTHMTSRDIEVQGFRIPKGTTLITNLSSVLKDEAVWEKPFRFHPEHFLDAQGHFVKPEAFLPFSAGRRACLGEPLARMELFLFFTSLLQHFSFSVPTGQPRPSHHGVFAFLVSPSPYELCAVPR
The nature of data set [3]: Half life in rat at 2 mg/kg, iv and 4 mg/kg, po. It counts as ADME, organism-based. The conditions noted are these: in vivo.
Data set [4] is described as follows: Volume of distribution at steady state in rat at 2 mg/kg, iv and 4 mg/kg, po. The note with it: in vivo, read-out: Vdss. Format: ADME, organism-based.
Data set [5] is described as follows: Clearance in rat at 2 mg/kg, iv and 4 mg/kg, po. Format: ADME, organism-based. The conditions noted are these: in vivo.
Data set [6] is described as follows: Oral bioavailability in rat at 4 mg/kg, po. Format: ADME, organism-based. The note with it: in vivo.
Data set [7] concerns the target Kappa-type opioid receptor (Homo sapiens, UniProt P41145). Briefly: Agonist activity at kappa opioid receptor. It counts as functional.
Data set [8] is described as follows: Binding affinity at batrachotoxinin sensitive Sodium channel in rat brain. It counts as tissue-based.
A short description of data set [9]: Cmax in rat at 2 mg/kg, iv and 4 mg/kg, po. It counts as ADME, organism-based. The note with it: in vivo.
In data set [10] the target is T2, Urotensin-2 receptor (Rattus norvegicus) (UniProt P49684).
T2 sequence (whole entry): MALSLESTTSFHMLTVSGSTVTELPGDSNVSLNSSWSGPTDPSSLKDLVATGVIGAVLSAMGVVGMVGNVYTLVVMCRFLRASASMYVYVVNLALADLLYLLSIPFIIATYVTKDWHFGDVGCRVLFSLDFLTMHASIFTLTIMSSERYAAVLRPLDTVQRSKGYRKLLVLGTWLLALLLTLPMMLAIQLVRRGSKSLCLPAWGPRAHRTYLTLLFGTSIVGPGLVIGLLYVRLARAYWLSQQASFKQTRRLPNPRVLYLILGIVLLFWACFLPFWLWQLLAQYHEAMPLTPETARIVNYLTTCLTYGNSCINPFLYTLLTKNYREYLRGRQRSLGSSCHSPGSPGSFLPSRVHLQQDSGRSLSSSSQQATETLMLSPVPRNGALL
Description: Binding affinity at Urotensin 2 receptor in rat aorta.

Data set [11] has as its target Cytochrome P450 3A4 (Homo sapiens, UniProt P08684).

What is called Ki is a dissociation constant, usually derived from enzyme kinetics or from competition with a known ligand. Broadly, the IC50 is the concentration that gives 50% inhibition. In general, half-life refers to the time needed for the level to fall by half in the phase considered. What is called bioavailability is dose-corrected exposure relative to a reference, in per cent. For orientation: EC50 means the concentration at which the effect is half-maximal. For orientation: Cmax means the highest concentration seen after dosing.

Kappa-type opioid receptor, sequence (P41145 whole entry): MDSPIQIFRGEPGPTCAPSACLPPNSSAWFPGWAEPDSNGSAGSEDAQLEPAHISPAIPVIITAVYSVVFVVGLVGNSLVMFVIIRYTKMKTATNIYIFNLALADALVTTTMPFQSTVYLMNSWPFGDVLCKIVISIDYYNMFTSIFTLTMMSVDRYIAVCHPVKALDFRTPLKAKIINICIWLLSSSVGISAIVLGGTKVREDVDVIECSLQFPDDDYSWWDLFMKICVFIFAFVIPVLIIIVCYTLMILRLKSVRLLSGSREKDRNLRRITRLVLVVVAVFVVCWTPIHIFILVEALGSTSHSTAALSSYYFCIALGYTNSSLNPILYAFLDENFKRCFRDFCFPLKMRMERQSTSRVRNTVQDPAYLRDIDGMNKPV
Cytochrome P450 3A4, sequence (P08684 whole entry): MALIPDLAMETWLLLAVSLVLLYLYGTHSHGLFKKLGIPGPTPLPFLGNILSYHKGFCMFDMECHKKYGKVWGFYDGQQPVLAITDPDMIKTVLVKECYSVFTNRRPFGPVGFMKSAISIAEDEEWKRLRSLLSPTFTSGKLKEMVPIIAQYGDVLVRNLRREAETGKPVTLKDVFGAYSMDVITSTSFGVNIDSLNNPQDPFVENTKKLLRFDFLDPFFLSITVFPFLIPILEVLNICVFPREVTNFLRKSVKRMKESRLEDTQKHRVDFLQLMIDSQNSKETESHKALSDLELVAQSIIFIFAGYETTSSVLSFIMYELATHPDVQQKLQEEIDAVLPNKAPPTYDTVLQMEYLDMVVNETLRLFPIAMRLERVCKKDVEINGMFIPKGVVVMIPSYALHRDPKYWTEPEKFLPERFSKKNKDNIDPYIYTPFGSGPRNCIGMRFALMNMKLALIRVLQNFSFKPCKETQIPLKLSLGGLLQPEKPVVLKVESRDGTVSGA

As to `COCCN(CC(=O)N1CCCC(c2ccccc2)C1CN1CCCC1)c1ccc(Cl)c(Cl)c1` (stereo not given), the figures for the Ki in [1] and in [8] were 8 nM and 960 nM, respectively. This compound also came in with an IC50 in [2] of 820 nM. The compound further had a half-life in data set [3] of 2.8 h. In addition, the Vd in data set [4] came out at 27 L/kg. In [5], this compound gave a clearance of 120 mL/min/kg. For the same compound, in [6], the bioavailability came to 30%. The EC50 in data set [7] was 1000 nM. In data set [9], this compound had a maximum concentration (Cmax) of 95 ng/mL.

`CN(CC(=O)N1CCCC(c2ccccc2)C1CN1CCCC1)c1ccc(Cl)c(Cl)c1` (racemic): the figures for the Ki in data set [1] and in data set [8] were 16 nM and 2500 nM, respectively. The same compound displayed a Kb in data set [10] of 28 nM. The results for the IC50 in [2] and in data set [11] were 750 nM and 1400 nM, respectively. Further, the half-life in [3] is 3.8 h. Further, the Vd in [4] was 23 L/kg. The compound also had a clearance in data set [5] of 97 mL/min/kg. The compound also showed a bioavailability in [6] of 0%. Further, in data set [7], a half-maximal response (EC50) required 3200 nM. In [9], the Cmax turned out to be 100 ng/mL.

In the case of `O=C(Cn1c(=O)sc2ccc(Cl)cc21)N1CCCC(c2ccccc2)C1CN1CCOCC1` (racemic), the figures for the inhibition constant Ki in data set [1] and in data set [8] were 6 nM and 3500 nM, respectively. For the same compound, the IC50 was 8000 nM in data set [2] and 680 nM in data set [11]. The half-life in [3] was 5 h. The Vd in [4] amounted to 26 L/kg. Further, the clearance in [5] was found to be 130 mL/min/kg. For the same compound, in [6], the bioavailability was less than 1%. The compound also came in with an EC50 in data set [7] of 7900 nM. Also, the highest level in data set [9] (Cmax) was 160 ng/mL.

As for `O=C(Cn1c(=O)sc2ccc(Cl)cc21)N1CCCC(c2ccccc2)C1CN1CCCC1` (racemic), the Ki amounted to 1.2 nM in data set [1] and 330 nM in data set [8]. The half-inhibitory concentration (IC50) stood at 1700 nM in data set [2] and 1000 nM in [11]. For the same compound, a half-maximal effect in data set [7] (EC50) was put at 1300 nM.

Take `O=C1COc2cc(Cl)c(Cl)cc2N1CC(=O)N1CCCC(c2ccccc2)C1CN1CCCC1` (racemic): the results for the Ki in data set [1] and in data set [8] were 0.4 nM and 680 nM, respectively. Further, the IC50 in [2] turned out to be 1600 nM; in [11] it was 1800 nM. Also, the EC50 in [7] was 500 nM.

With `Cc1cc2ncc(=O)n(CC(=O)N3CCCC(c4ccccc4)C3CN3CCOCC3)c2cc1C` (racemic), the Ki in data set [1] is 5 nM; in data set [8] it was 6900 nM. Besides, the figures for the IC50 in data set [2] and in data set [11] were 6700 nM and 2700 nM, respectively. Besides, the EC50 in data set [7] is 30000 nM.

With `O=C(Cn1c(=O)cnc2cc(Cl)c(Cl)cc21)N1CCCC(c2ccccc2)C1CN1CCOCC1` (racemic), the Ki is 3 nM in [1] and 18000 nM in data set [8]. Besides, the values for the IC50 in data set [2] and in [11] were 21000 nM and 1000 nM, respectively. The compound further came in with an EC50 in [7] of 15000 nM.

`O=C(Cn1c(=O)cnc2cc(Cl)c(Cl)cc21)N1CCCC(c2ccccc2)C1CN1CCCC1` (racemic): the Ki in [1] is 0.6 nM; in data set [8] it was 930 nM. Also, the IC50 worked out at 2900 nM in [2] and 1200 nM in data set [11]. Besides, in data set [7], the EC50 was 3200 nM.

Take `O=C(Cn1c(=O)oc2ccc(Cl)cc21)N1CCCC(c2ccccc2)C1CN1CCCC1` (racemic): the Ki in data set [1] came to 5 nM; in [8], 150 nM. Also, the IC50 in [2] is 2200 nM; in [11] it was 2100 nM. The compound also registered an EC50 in [7] of 5000 nM.

For the compound `Cc1cc2c(cc1C)N(CC(=O)N1CCCC(c3ccccc3)C1CN1CCCC1)C(=O)CO2` (racemic), the results for the Ki in data set [1] and in [8] were 0.4 nM and 390 nM, respectively. The concentration for half-maximal inhibition (IC50) was determined as 5100 nM in [2] and 3900 nM in data set [11]. In data set [7], this compound registered an EC50 of 5000 nM.

Consider `Cc1cc2ncc(=O)n(CC(=O)N3CCCC(c4ccccc4)C3CN3CCCC3)c2cc1C` (racemic), for which the results for the Ki in data set [1] and in data set [8] were 1 nM and 1400 nM, respectively. In addition, the values for the IC50 in data set [2] and in data set [11] were 8400 nM and 6800 nM, respectively. Besides, the EC50 in data set [7] is 6300 nM.

In the case of `N#CCN(CC(=O)N1CCCC(c2ccccc2)C1CN1CCCC1)c1ccc(Cl)c(Cl)c1` (racemic), the inhibitory constant (Ki) in [1] is 2 nM; in data set [8] it was 1600 nM. The compound further gave a Kb in data set [10] of 5 nM. Further, the IC50 stood at 2300 nM in data set [2] and 1100 nM in data set [11]. For the same compound, in [3], the half-life is 3.2 h. Moreover, the Vd in [4] came to 27 L/kg. The compound also registered a clearance in [5] of 100 mL/min/kg. Besides, the bioavailability in [6] is 12%. The compound further returned a concentration giving a half-maximal response (EC50) in [7] of 790 nM. This compound registered a Cmax in [9] of 120 ng/mL.

With `N#CCN(CC(=O)N1CCCC(c2ccccc2)C1CN1CCOCC1)c1ccc(Cl)c(Cl)c1` (racemic), the Ki in [1] came out at 6 nM; in data set [8], 4000 nM. In addition, the IC50 worked out at 3700 nM in [2] and 490 nM in [11]. In data set [3], this compound showed a half-life of 2.6 h. In addition, the Vd in data set [4] was 8 L/kg. In [5], the clearance worked out at 60 mL/min/kg. Moreover, the bioavailability in data set [6] amounted to 7%. This compound yielded an EC50 in [7] of 5000 nM. The compound further registered a Cmax in data set [9] of 370 ng/mL.

`O=C1COc2cc(Cl)c(Cl)cc2N1CC(=O)N1CCCC(c2ccccc2)C1CN1CCOCC1` (racemic): the Ki in [1] is 2 nM; in data set [8], 1300 nM. Further, the figures for the IC50 in [2] and in [11] were 4800 nM and 730 nM, respectively. In addition, the response in data set [7] was half-maximal at 7900 nM (EC50).

For the compound `CN(CC(=O)N1CCCC(c2ccccc2)C1CN1CCOCC1)c1ccc(Cl)c(Cl)c1` (racemic), the figures for the Ki in data set [1] and in [8] were 79 nM and 1600 nM, respectively. In data set [2], 2300 nM corresponded to half-maximal inhibition (IC50). In data set [7], this compound registered an EC50 of 1000 nM.

For the compound `COCCN(CC(=O)N1CCCC(c2ccccc2)C1CN1CCOCC1)c1ccc(Cl)c(Cl)c1` (racemic), the Ki in [1] was 130 nM; in [8], 3200 nM. Further, the results for the IC50 in data set [2] and in [11] were 3200 nM and 480 nM, respectively. Also, the EC50 in [7] was 10000 nM.

With `O=C(Cn1c(=O)oc2ccc(Cl)cc21)N1CCCC(c2ccccc2)C1CN1CCOCC1` (racemic), the values for the inhibitory constant (Ki) in data set [1] and in data set [8] were 40 nM and 730 nM, respectively. In addition, the IC50 in data set [2] is 3500 nM; in data set [11], 1300 nM. The same compound displayed a concentration giving a half-maximal response (EC50) in data set [7] of 1300 nM.
